≈ marks a conversion by molar mass, not a printed value.
Experiments:
Format in all cases: cell-based
[1] = test system: Pseudomonas aeruginosa UC-12120; assay: minimum inhibitory concentration (MIC) testing according to CLSI guidelines, Pseudomonas aeruginosa; settings: Pseudomonas aeruginosa, UC12120; UC-12120, wild-type, labeled as 1091-05; overnight incubation; lower of duplicate values; read-out: AB-MBT: Pseudomonas aeruginosa 1091-05: MIC (MstRcn)
Procedure: (§1) In order to assess the compounds biological activity, the in vitro anti-bacterial activity of selected compounds described in the Examples 1-69 was evaluated by minimum inhibitory concentration (MIC) testing according to Clinical and Laboratory Standards Institute (CLSI, formerly NCCLS) guidelines. See: Clinical and Laboratory Standards Institute. Methods for Dilution Antimicrobial Susceptibility Tests for Bacteria that Grow Aerobically; Approved Standard-Eighth Edition. CLSI document M7-A8 [ISBN 1-56238-689-1]. Clinical and Laboratory Standards Institute, 940 West Valley Road, Suite 1400, Wayne, Pa. 19087-1898 USA, 2006; also Clinical and Laboratory Standards Institute. Performance Standards for Antimicrobial Susceptibility Testing; Twentieth Informational Supplement. CLSI document M100-S20 [ISBN1-56238-716-2]. Clinical and Laboratory Standards Institute.
(§2) The MIC determination is a standard laboratory method for evaluating the antibacterial activity of a compound. The MIC represents the lowest drug concentration that inhibits visible growth of bacteria following overnight incubation. […] Typically, the drug concentration range is broken down into 2-fold increments (e.g. 0.06 μg/mL, 0.12 μg/mL. 0.25 μg/mL, 0.50 μg/mL, 1.0 μg/mL, etc.) and the various drug concentrations are all individually incubated overnight with approximately the same number of bacteria. The MIC is then determined by visually inspecting the drug effect at each concentration, and identifying the lowest drug concentration that has inhibited bacterial growth as compared to the drug free control. Typically, bacteria continue to grow at drug concentrations lower than the MIC and don't grow at concentrations at and above the MIC.
(§3) The MIC values described in Table 1 below were derived from assays wherein each test compound was evaluated in duplicate. In cases where the duplicate values varied by 0-2-fold, the lower of the two values was reported below. Generally speaking, if the duplicate values varied by more than 2-fold, the assay was considered non-valid and was repeated until the variation between duplicate runs was ≦2-fold. In line with the CLSI guidelines referred to above, both control organisms and reference compounds were utilized in each MIC assay to provide proper quality control. MIC values generated with these control organisms and reference compounds were required to fall within a defined range for the assay to be considered valid and be included herein. Those skilled in the art will recognize that MIC values can and do vary from experiment to experiment. Generally speaking, it should be recognized that MIC values often vary +/−2-fold from experiment to experiment. While a single MIC is reported for each compound and each microorganism, the reader should not conclude that each compound was only tested once. Several of the compounds were subjected to multiple tests. The data reported in Table 1 is reflective of the compounds relative activity and different MICs may have been generated on these occasions in light with the guidelines described above.
(§4) The following bacterial strains were used in these MIC determinations:
1) Pseudomonas aeruginosa UC-12120: Wild-type, labeled as 1091-05;

[2] = test system: Klebsiella pneumoniae 1000-02; assay: minimum inhibitory concentration (MIC) testing according to CLSI guidelines, Klebsiella pneumoniae; settings: Klebsiella pneumoniae; ciprofloxacin-resistant, ESBL-expressing clinical isolate 1000-02; overnight incubation; lower of duplicate values; read-out: AB-MBT: Klebsiella pneumoniae 1000-02: MIC (MstRcnt)
Procedure: as §1, §2, §3, §4
2) Klebsiella pneumoniae: Ciprofloxacin-resistant isolate, expresses extended-spectrum beta-lactamases (ESBL), clinical isolate, labeled as 1000-02;

[3] = test system: Acinetobacter baumannii/haemolyticus AB-3167; assay: minimum inhibitory concentration (MIC) testing according to CLSI guidelines, Acinetobacter; settings: Acinetobacter baumannii; multidrug-resistant clinical isolate AB-3167; overnight incubation; lower of duplicate values; read-out: AB-MBT: Acinetobacter baumanii AB-3167: MIC (MstRcnt)
Procedure: as §1, §2, §3, §4
3) Acinetobacter baumannii/haemolyticus: Multidrug-resistant clinical isolate, labeled as AB-3167.

Structure (SMILES) | MIC [1] | MIC [2] | MIC [3]
CC(C)(O/N=C(\C(=O)N[C@@H]1C(=O)N(S(=O)(=O)O)[C@@H]1CNC(=O)c1cnc(-c2cc(=O)c(O)c[nH]2)nc1)c1csc(N)n1)C(=O)O [Example 24, 2-({[(1Z)-1-(2-amino-1,3-thiazol-4-yl)-2-({(2R,3S)-2-[({[2-(5-hydroxy-4-oxo-1,4-dihydropyridin-2-yl)pyrimidin-5-yl]carbonyl}amino)methyl]-4-oxo-1-sulfoazetidin-3-yl}amino)-2-oxoethylidene]amino}oxy)-2-methylpropanoic acid] | 1 µg/mL (≈ 1.5 µM) | 16 µg/mL (≈ 24 µM) | 2 µg/mL (≈ 3 µM)
Nc1nc(/C(=N/OC2(C(=O)O)CCOCC2)C(=O)N[C@@H]2C(=O)N(S(=O)(=O)O)[C@@H]2CNC(=O)NCc2cc(=O)c(O)cn2O)cs1 [Example 27, 4-({[(1Z)-1-(2-amino-1,3-thiazol-4-yl)-2-({(2R,3S)-2-[({[(1,5-dihydroxy-4-oxo-1,4-dihydropyridin-2-yl)methyl]carbamoyl}amino)methyl]-4-oxo-1-sulfoazetidin-3-yl}amino)-2-oxoethylidene]amino}oxy)tetrahydro-2H-pyran-4-carboxylic acid] | 1 µg/mL (≈ 1.48 µM) | 1 µg/mL (≈ 1.48 µM) | 2 µg/mL (≈ 2.96 µM)
Nc1nc(/C(=N/OC2(C(=O)O)CCCCC2)C(=O)N[C@@H]2C(=O)N(S(=O)(=O)O)[C@@H]2CNC(=O)NCc2cc(=O)c(O)cn2O)cs1 [Example 28, 1-({[(1Z)-1-(2-amino-1,3-thiazol-4-yl)-2-({(2R,3S)-2-[({[(1,5-dihydroxy-4-oxo-1,4-dihydropyridin-2-yl)methyl]carbamoyl}amino)methyl]-4-oxo-1-sulfoazetidin-3-yl}amino)-2-oxoethylidene]amino}oxy)cyclohexanecarboxylic acid] | 1 µg/mL (≈ 1.49 µM) | 0.5 µg/mL (≈ 0.743 µM) | 1 µg/mL (≈ 1.49 µM)
Nc1nc(/C(=N/OC2(C(=O)O)CCC2)C(=O)N[C@@H]2C(=O)N(S(=O)(=O)O)[C@@H]2CNC(=O)NCc2cc(=O)c(O)cn2O)cs1 [Example 30, 1-({[(1Z)-1-(2-amino-1,3-thiazol-4-yl)-2-({(2R,3S)-2-[({[(1,5-dihydroxy-4-oxo-1,4-dihydropyridin-2-yl)methyl]carbamoyl}amino)methyl]-4-oxo-1-sulfoazetidin-3-yl}amino)-2-oxoethylidene]amino}oxy)cyclobutanecarboxylic acid] | 0.125 µg/mL (≈ 0.194 µM) | 0.125 µg/mL (≈ 0.194 µM) | 0.25 µg/mL (≈ 0.388 µM)
CC(C)(O/N=C(\C(=O)N[C@@H]1C(=O)N(S(=O)(=O)O)[C@@H]1CNC(=O)NCc1cc(=O)c(O)cn1O)c1nsc(N)n1)C(=O)O [Example 33, 2-({[(1Z)-1-(5-amino-1,2,4-thiadiazol-3-yl)-2-({(2R,3S)-2-[({[(1,5-dihydroxy-4-oxo-1,4-dihydropyridin-2-yl)methyl]carbamoyl}amino)methyl]-4-oxo-1-sulfoazetidin-3-yl}amino)-2-oxoethylidene]amino}oxy)-2-methylpropanoic acid] | 0.25 µg/mL (≈ 0.395 µM) | 2 µg/mL (≈ 3.16 µM) | 0.5 µg/mL (≈ 0.789 µM)
C[C@H](O/N=C(\C(=O)N[C@@H]1C(=O)N(S(=O)(=O)O)[C@@H]1CNC(=O)NCc1cc(=O)c(O)cn1O)c1nc(N)sc1Cl)C(=O)O [Example 34, (2S)-2-({[(1Z)-1-(2-amino-5-chloro-1,3-thiazol-4-yl)-2-({(2R,3S)-2-[({[(1,5-dihydroxy-4-oxo-1,4-dihydropyridin-2-yl)methyl]carbamoyl}amino)methyl]-4-oxo-1-sulfoazetidin-3-yl}amino)-2-oxoethylidene]amino}oxy)propanoic acid] | 0.125 µg/mL (≈ 0.191 µM) | 0.5 µg/mL (≈ 0.766 µM) | 0.25 µg/mL (≈ 0.383 µM)
Cn1cc(O)c(=O)cc1C(=O)NC[C@@H]1[C@H](NC(=O)/C(=N\OC(C)(C)C(=O)O)c2csc(N)n2)C(=O)N1S(=O)(=O)O [Example 35, 2-({[(1Z)-1-(2-amino-1,3-thiazol-4-yl)-2-{[(2R,3S)-2-({[(5-hydroxy-1-methyl-4-oxo-1,4-dihydropyridin-2-yl)carbonyl]amino}methyl)-4-oxo-1-sulfoazetidin-3-yl]amino}-2-oxoethylidene]amino}oxy)-2-methylpropanoic acid] | 4 µg/mL (≈ 6.65 µM) | 0.25 µg/mL (≈ 0.416 µM) | 0.5 µg/mL (≈ 0.831 µM)
CC(C)(O/N=C(\C(=O)N[C@@H]1C(=O)N(S(=O)(=O)O)[C@@H]1CNC(=O)CNC(=O)c1cc(=O)c(O)cn1O)c1csc(N)n1)C(=O)O [Example 36, 2-({[(1Z)-1-(2-amino-1,3-thiazol-4-yl)-2-({(2R,3S)-2-[({N-[(1,5-dihydroxy-4-oxo-1,4-dihydropyridin-2-yl)carbonyl]glycyl}amino)methyl]-4-oxo-1-sulfoazetidin-3-yl}amino)-2-oxoethylidene]amino}oxy)-2-methylpropanoic acid] | 0.125 µg/mL (≈ 0.189 µM) | 1 µg/mL (≈ 1.51 µM) | 0.25 µg/mL (≈ 0.378 µM)
CC(C)(O/N=C(\C(=O)N[C@@H]1C(=O)N(S(=O)(=O)O)[C@@H]1CNS(=O)(=O)NCc1cc(=O)c(O)cn1O)c1csc(N)n1)C(=O)O [Example 37, 2-({[(1Z)-1-(2-amino-1,3-thiazol-4-yl)-2-{[(2R,3S)-2-{[({[(1,5-dihydroxy-4-oxo-1,4-dihydropyridin-2-yl)methyl]amino}sulfonyl)amino]methyl}-4-oxo-1-sulfoazetidin-3-yl]amino}-2-oxoethylidene]amino}oxy)-2-methylpropanoic acid] | 1 µg/mL (≈ 1.5 µM) | 4 µg/mL (≈ 5.98 µM) | 2 µg/mL (≈ 2.99 µM)

Further compounds by falling MIC [1], results first:

MIC [1] | MIC [2] | Structure (SMILES) | MIC [3]
1 µg/mL (≈ 1.51 µM) | 0.5 µg/mL (≈ 0.757 µM) | CC(C)C[C@H](O/N=C(\C(=O)N[C@@H]1C(=O)N(S(=O)(=O)O)[C@@H]1CNC(=O)NCc1cc(=O)c(O)cn1O)c1csc(N)n1)C(=O)O [Example 31, (2S)-2-({[(1Z)-1-(2-amino-1,3-thiazol-4-yl)-2-({(2R,3S)-2-[({[(1,5-dihydroxy-4-oxo-1,4-dihydropyridin-2-yl)methyl]carbamoyl}amino)methyl]-4-oxo-1-sulfoazetidin-3-yl}amino)-2-oxoethylidene]amino}oxy)-4-methylpentanoic acid] | 0.5 µg/mL (≈ 0.757 µM)
1 µg/mL (≈ 1.44 µM) | 1 µg/mL (≈ 1.44 µM) | Nc1nc(/C(=N/O[C@@H](Cc2ccccc2)C(=O)O)C(=O)N[C@@H]2C(=O)N(S(=O)(=O)O)[C@@H]2CNC(=O)NCc2cc(=O)c(O)cn2O)cs1 [Example 32, (2S)-2-({[(1Z)-1-(2-amino-1,3-thiazol-4-yl)-2-({(2R,3S)-2-[({[(1,5-dihydroxy-4-oxo-1,4-dihydropyridin-2-yl)methyl]carbamoyl}amino)methyl]-4-oxo-1-sulfoazetidin-3-yl}amino)-2-oxoethylidene]amino}oxy)-3-phenylpropanoic acid] | 1 µg/mL (≈ 1.44 µM)
0.25 µg/mL (≈ 0.375 µM) | 1 µg/mL (≈ 1.5 µM) | CC(C)(O/N=C(\C(=O)N[C@@H]1C(=O)N(S(=O)(=O)O)[C@@H]1CNC(=O)NCc1cc(=O)c(O)cn1O)c1nc(N)sc1Cl)C(=O)O [Example 29, 2-({[(1Z)-1-(2-amino-5-chloro-1,3-thiazol-4-yl)-2-({(2R,3S)-2-[({[(1,5-dihydroxy-4-oxo-1,4-dihydropyridin-2-yl)methyl]carbamoyl}amino)methyl]-4-oxo-1-sulfoazetidin-3-yl}amino)-2-oxoethylidene]amino}oxy)-2-methylpropanoic acid] | 0.5 µg/mL (≈ 0.75 µM)
0.125 µg/mL (≈ 0.19 µM) | 0.125 µg/mL (≈ 0.19 µM) | Nc1nc(/C(=N/OC2(C(=O)O)CCCC2)C(=O)N[C@@H]2C(=O)N(S(=O)(=O)O)[C@@H]2CNC(=O)NCc2cc(=O)c(O)cn2O)cs1 [Example 26, 1-({[(1Z)-1-(2-amino-1,3-thiazol-4-yl)-2-({(2R,3S)-2-[({[(1,5-dihydroxy-4-oxo-1,4-dihydropyridin-2-yl)methyl]carbamoyl}amino)methyl]-4-oxo-1-sulfoazetidin-3-yl}amino)-2-oxoethylidene]amino}oxy)cyclopentanecarboxylic acid] | 0.25 µg/mL (≈ 0.38 µM)

Source: US20130252935A1, “Monobactams” (PFIZER INC., priority 2010, published 2013)
